Where a name gives a salt, the structure may show the parent alone. Read-outs that look alike come from different tables or passages of the source.
Columns and labels:
[1] = tested on: HiBiT-tagged HTT protein in K562 cells; assay: HiBit protein abundance assay, HTT; type: cell-based, human; details: K562 HiBiT-modified cells, 24 hours, luminescence
Protocol: Compounds described herein were used to screen for effects on quantitative protein abundance using a HiBit assay system (Promega). Quantitative protein abundance was determined by measuring the protein levels of HiBit-tagged protein targets expressed in cell culture via luminescence using the Nano-Glo HiBiT Lytic Detection System, which uses a split complementation assay format to reconstitute NanoBiT enzyme to generate a luminescent signal. A protein abundance assay was developed such that endogenous protein targets could be modified with the HiBiT peptide tag and their abundance could be assessed after compound treatment. Briefly, K562 cell lines containing a HiBiT-modification were treated with various compounds described herein (e.g., compounds of Formulas (I), (II), or (III)). After treatment for 24 hours, the protein abundance of a specific target was determined by measuring luminescence. • Promega Nano-Glo HiBiT Lytic Detection System (cat #N3030) • Corning 384-well TC-treated microplates (cat #3570) • Synthego Engineered Cells Knock-In Clones [table] Cells were maintained in IMDM with 10% FBS. Before the assay, cells were diluted with phenolphthalein-free growth media (IMDM+1% FBS media) and were seeded in a 384-well plate at a density of 10000 cells/well (for each cell line listed in Table 6). Each compound was prepared as a 10-point 3-fold serial dilution in DMSO with the top dose at a final concentration of 10 μM in the well. Unmodified K562 cells were added at the previously specified density with DMSO to serve as an assay baseline and positive control (PC) and DMSO only with the respective modified cell lines was added to the negative control (NC) columns. Final DMSO concentration was kept at or below 0.25%. Treated cell plates were placed in an incubator at 37° C. with 5% CO2 for 24 hours. After 24 hours, 25 μL of Complete HiBit Lytic reagent was added to each well at room temperature (e.g. one plate requiring 10 mL Lytic Buffer, 100 μL LgBiT Protein, 200 μL Lytic Substrate), shaken for 5 minutes at 600 RPM, then left to sit for 10 minutes for signal to stabilize before reading on a Spark Cyto plate reader (Tecan) with a 500 ms measurement time. To determine compound effects on protein abundance of each target in Table 6, the percent response for each respective cell line was calculated at each compound concentration as follows: For the normalized response at each concentration, a four-parameter logistical regression was fit to the data and the response was interpolated at the 50% value to determine a concentration for protein abundance at 50% (IC50) the untreated control.

MYB mRNA = assay: RT-qPCR splicing assay, MYB canonical (CJ) and alternative (AJ) junction mRNA; type: cell-based; details: Homo sapiens; for IC50: read-out: MYB CJ IC50; for AC50: read-out: MYB AJ AC50
Outline: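 Splice-junction mRNAs (CJ, AJ) measured by TaqMan one-step RT-qPCR on cell lysates, using PPIA as reference for adherent A673 and GAPDH or GUSB for K562. Cells exposed for 24 h to 11 threefold concentrations up to 10 uM final, with DMSO at or below 0.25%.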

[2] = decrease in CJ mRNA levels, larger panel of genes, Table 3
[3] = decrease in canonical junction mRNA, A673 or K562 cells, 24 hours treatment, Table 2
[4] = increase in alternative junction mRNA, A673 or K562 cells, 24 hours treatment, Table 2

SMILES | IC50 [1] [µM] | IC50 (MYB mRNA; [2]) [µM] | IC50 (MYB mRNA; [3]) [µM] | AC50 (MYB mRNA; [4]) [µM] | AC50 (MYB mRNA; 24 h) [µM] | IC50 (MYB mRNA; 24 h) [µM] | IC50 (MYB mRNA) [µM]
Cn1cc2cc(-c3cc(Cl)c4nn(C5CCNCC5)cc4n3)c(O)cc2n1 [Compound 141] | > 10 | > 10 | > 10 | > 10 | – | – | –
Cc1ncc2cc(-c3cc(F)c4nn(C5CCNCC5)cc4c3)ccc2n1 [Compound 165, 6-[7-fluoro-2-(4-piperidyl)indazol-5-yl]-2-methyl-quinazoline] | > 10 | > 10 | > 10 | > 10 | – | – | –
Cc1ccc2cc(-c3cc(F)c4nn(C5CCNCC5)cc4c3)ccc2n1 [Compound 163, 6-[7-fluoro-2-(4-piperidyl)indazol-5-yl]-2-methyl-quinoline] | 1 to 10 | > 10 | > 10 | > 10 | – | – | –
Cc1cc(-c2cc(F)c3nn(C4CCNCC4)cc3c2)cc2cn(C)nc12 [Compound 133, 5-(2,7-dimethylindazol-5-yl)-7-fluoro-2-(4-piperidyl)indazole] | < 0.1 | 0.1 to 1 | 0.1 to 1 | 0.1 to 1 | – | – | –
CCN1CCC(n2cc3cc(-c4cc(C)c5nc(C)cn5n4)cc(F)c3n2)CC12CC2 (centres unmarked) [Compound 177, 6-[2-(4-ethyl-4-azaspiro[2.5]octan-7-yl)-7-fluoro-indazol-5-yl]-2,8-dimethyl-imidazo[1,2-b]pyridazine] | < 0.1 | 0.1 to 1 | 0.1 to 1 | 0.1 to 1 | – | – | –
Cc1cn2nc(-c3ccc4nn(C5CCNCC5)cc4n3)cc(C)c2n1 [Compound 138, 2,8-dimethyl-6-[2-(4-piperidyl)pyrazolo[4,3-b]pyridin-5-yl]imidazo[1,2-b]pyridazine] | 0.1 to 1 | 0.1 to 1 | 0.1 to 1 | 1 to 10 | – | – | –
Cc1nc2ccc(-c3cc(F)c4nn(C5CCNCC5)cc4c3)cc2o1 [Compound 135, 6-[7-fluoro-2-(4-piperidyl)indazol-5-yl]-2-methyl-1,3-benzoxazole] | < 0.1 | 0.1 to 1 | 0.1 to 1 | 0.1 to 1 | – | – | –
Cc1cc(-n2cc3cc(N4CCNCC4)ccc3n2)cc2cn(C)nc12 [Compound 121, 2,7-dimethyl-5-(5-piperazin-1-ylindazol-2-yl)indazole] | > 10 | > 10 | > 10 | > 10 | – | – | –
Cc1cn2nc(-c3cc(O)c4nn(C5CCNCC5)cc4c3)cc(C)c2n1 [Compound 156, 5-(2,8-dimethylimidazo[1,2-b]pyridazin-6-yl)-2-(piperidin-4-yl)-2H-indazol-7-ol] | 0.1 to 1 | 1 to 10 | 1 to 10 | 1 to 10 | – | – | –
Cc1cn2cc(-c3cc(F)c4nn(C5CCNCC5)cc4c3)cc(Cl)c2n1 [Compound 127, 5-(8-chloro-2-methylimidazo[1,2-a]pyridin-6-yl)-7-fluoro-2-(piperidin-4-yl)-2H-indazole hydrochloride salt] | < 0.1 | 0.1 to 1 | 0.1 to 1 | 0.1 to 1 | – | – | –
Cc1c(O)c(-c2ccc3nn(C4CCNCC4)nc3n2)cc2cn(C)nc12 [Compound 113, 2,7-dimethyl-5-[2-(4-piperidyl)triazolo[4,5-b]pyridin-5-yl]indazol-6-ol] | 1 to 10 | > 10 | > 10 | > 10 | – | – | –
COC1=C(C)C2N=C(C)OC2C=C1c1cc(F)c2nn(C3CCNCC3)cc2n1 (centres unmarked) [Compound 144] | 1 to 10 | > 10 | > 10 | > 10 | – | – | –
Cn1cc2cc(-c3cc(F)c4nn(C5CCNCC5)nc4c3)cc(F)c2n1 [Compound 103, 4-fluoro-6-(7-fluoro-2-methyl-indazol-5-yl)-2-(4-piperidyl) benzotriazole] | 0.1 to 1 | 1 to 10 | 1 to 10 | 1 to 10 | – | – | –
Cc1cc(-n2cc3cc(C4CCNCC4)cc(F)c3n2)cc2cn(C)nc12 [Compound 115, 2-(2,7-dimethylindazol-5-yl)-7-fluoro-5-(4-piperidyl)indazole] | 1 to 10 | > 10 | > 10 | 1 to 10 | – | – | –
CCN1CCC(n2cc3cc(-c4cc(F)c5nn(C)cc5c4)cc(F)c3n2)CC1 [Compound 104, 2-(1-ethyl-4-piperidyl)-7-fluoro-5-(7-fluoro-2-methyl-indazol-5-yl)indazole] | 0.1 to 1 | 1 to 10 | 1 to 10 | 1 to 10 | – | – | –
Cc1nc2c(C)cc(-n3cc4cc(N5CCNCC5)cc(F)c4n3)cc2o1 [Compound 119, 6-(7-fluoro-5-piperazin-1-yl-indazol-2-yl)-2,4-dimethyl-1,3-benzoxazole] | > 10 | > 10 | > 10 | > 10 | – | – | –
Cc1nc2c(C)c(O)c(-c3cc(F)c4nn(C5CCNCC5)cc4c3)cc2o1 [Compound 123, 6-[7-fluoro-2-(4-piperidyl)indazol-5-yl]-2,4-dimethyl-1,3-benzoxazol-5-ol] | 0.1 to 1 | 1 to 10 | 1 to 10 | 1 to 10 | – | – | –
Cc1cn2cc(-c3cc(F)c4nn(C5CCNCC5)cc4c3)cc(F)c2n1 [Compound 129, 7-fluoro-5-(8-fluoro-2-methylimidazo[1,2-a]pyridin-6-yl)-2-(piperidin-4-yl)-2H-indazole] | < 0.1 | 0.1 to 1 | 0.1 to 1 | 0.1 to 1 | – | – | –
Cc1cn2nc(-c3cc(F)c4nn(C5CCN(C6CCC6)CC5)cc4c3)cc(C)c2n1 [Compound 151, 6-[2-(1-cyclobutyl-4-piperidyl)-7-fluoro-indazol-5-yl]-2,8-dimethyl-imidazo [1,2-b] pyridazine] | < 0.1 | – | – | – | 0.1 to 1 | < 0.1 | < 0.1
Fc1cc(-c2ccc3ncccc3c2)cc2cn(C3CCNCC3)nc12 [Compound 162, 6-[7-fluoro-2-(4-piperidyl)indazol-5-yl]quinoline] | 1 to 10 | > 10 | > 10 | > 10 | – | – | –
Cn1cc2cc(-c3cc(F)c4nn(C5CCNCC5)cc4c3)ccc2n1 [Compound 145, 7-fluoro-5-(2-methylindazol-5-yl)-2-(4-piperidyl)indazole] | 0.1 to 1 | 1 to 10 | 1 to 10 | 0.1 to 1 | – | – | –
COc1cc(-c2cc(C)c3nc(C)cn3n2)cc2cn(C3CCNCC3)nc12 [Compound 155, 6-(7-methoxy-2-(piperidin-4-yl)-2H-indazol-5-yl)-2,8-dimethylimidazo [1,2-b]pyridazine] | < 0.1 | 0.1 to 1 | 0.1 to 1 | 0.1 to 1 | – | – | –
Cc1cn2nc(-c3cc(F)c4nn(C5CCNC6(CC6)C5)cc4c3)cc(C)c2n1 (centres unmarked) [Compound 171, 6-[2-(4-azaspiro[2.5]octan-7-yl)-7-fluoro-indazol-5-yl]-2,8-dimethyl-imidazo[1,2-b]pyridazine] | < 0.1 | 0.1 to 1 | 0.1 to 1 | 0.1 to 1 | – | – | –
Cn1cc2cc(-c3ccc4nn(C5CCNCC5)cc4n3)c(O)cc2n1 [Compound 110, 2-methyl-5-[2-(4-piperidyl)pyrazolo[4,3-b]pyridin-5-yl]indazol-6-ol] | 0.1 to 1 | 0.1 to 1 | 0.1 to 1 | 0.1 to 1 | – | – | –
Cc1cn2nc(-c3cc(F)c4nn(C5CCN(C6CCC6)C6(CC6)C5)cc4c3)cc(C)c2n1 (centres unmarked) [Compound 186, 6-[2-(4-cyclobutyl-4-azaspiro[2.5]octan-7-yl)-7-fluoro-indazol-5-yl]-2,8-dimethyl-imidazo[1,2-b]pyridazine] | < 0.1 | – | – | – | 0.1 to 1 | 0.1 to 1 | 0.1 to 1
Cn1cc2cc(-c3ccc4nn(C5CCNCC5)cc4c3)cc(F)c2n1 [Compound 105, 7-fluoro-2-methyl-5-[2-(4-piperidyl)indazol-5-yl]indazole] | 0.1 to 1 | 0.1 to 1 | 0.1 to 1 | 1 to 10 | – | – | –

From US20250082633A1, “COMPOUNDS AND METHODS FOR MODULATING SPLICING” (REMIX THERAPEUTICS INC., priority 2021, published 2025)
